# Legend:
# [1] = Pharmacokinetics and in vivo metabolites of ZL277 in mice plasma after single IP dose; conditions: for metabolite detected in Plasma: mice after IP injection of ZL277
# Procedure: (§1) Four to six-week-old female ovariectomized Nu/Nu mice (Genotype: Homozygous genotype, homozygous for Foxn1), purchased from Charles River Laboratories (Wilmington, MA, USA), were used for the study of ZL277 metabolites in vivo. Six mice in each group were given ethanol-dissolved ZL277 and belinostat, at a single dose of 10 mg/kg by intraperitoneal injection (IP). After IP administration, venous blood samples were collected at 1, 3, 6, and 24 h time points. Urine and fecal samples were collected for the time duration of 0–8 h, 8–24 h, 24–32 h, and 32–48 h after IP administration.
# (§2) Plasma, urine, or feces samples were processed following protocols published previously. These samples were injected on the Hypersil GOLD C18 column (1.8 µm, 2.1 × 50 mm) with UHPLC ultimate 3000 from Dionex, coupled with a […] mass spectrometer, to quantitate the concentration of the main metabolites of ZL277. The 10 µL samples were run with the gradient starting at 0.3 mL/min from 2% mobile phase B (acetonitrile with 0.05% formic acid) and 98% mobile phase A (water with 0.05% formic acid) until 1 min, up to 30% B at 3 min, 45% B at 4.8 min, 100% B at 5.5 min, then back to 30% B until equilibration. SRM mode was used to detect ZL277 (pos 535.21→134.97), ZL277-B(OH)2-452 (neg 451.13→256.04), ZL277-424-OH (neg 423.07→317.04), belinostat (neg 317.02→245.05) or (pos 319.08→93.08), belinostat amide (pos 303.08→91.05), belinostat acid (neg 302.05→92.05), methylated belinostat (pos 333.09→239.92). The product scan in MS/MS mode was used to detect belinostat–sulfate (neg 397.02→97.02), and belinostat–glucoronate (pos 495.09→319.27). The […] was set at spray voltage at 3200 V, vaporizer temperature at 365 °C, sheath gas pressure at 33 psi, auxiliary gas pressure at 10 psi, and capillary temperature at 350 °C. Additional experimental details can be found in Figures S1 and S2, and Tables S1–S8.
# Sample preparation protocols:
# (1) Plasma sample preparation: Plasma samples (100 μL) were extracted with methanol.
# Internal standard (10 μL 0.5 ng/μL trans-tamoxifen-13C2, 15N in methanol), methanol
# (0.5 mL) were added to each plasma sample. The mixtures were stored at −20 °C
# overnight. Samples were sonicated for 10 min and then centrifuged on a Heraeus Fresco
# [2] = Drug and metabolite concentrations in MCF-7 xenograft breast tumor tissues of treated mice; format: in vivo; conditions: breast tumor xenograft in mice treated with ZL277
# Procedure: Four to six week old female ovariectomized Nu/Nu mice, implanted subcutaneously with 17β-Estradiol pellets, were injected with MCF-7 cells harvested in the exponential growth phase to grow the breast tumors. On day 15 after tumor formation, the mice were treated with vehicle, belinostat, at 10 mg/kg/day, or ZL277 at 10 mg/kg/day, by subcutaneous injection. On the last day of the study, the tumors were collected and frozen for analysis.
# as §2
# [3] = Metabolites of ZL277 in urine and fecal samples from treated mice; format: in vivo; conditions: for metabolite detected in Urine: mice after IP injection of ZL277; for relative abundance among metabolites in feces / relative abundance among metabolites in urine: mice treated with ZL277
# Procedure: as §1, §2
# Sample preparation protocols: […]
# (2) Feces sample preparation: The collected feces samples were weighed on an OHAUS Explorer balance. The internal standard of trans-tamoxifen-13C2,15N (0.5 ng/μL in methanol) was added to the feces samples based on 10 ng/g feces according to the weight of the feces collected. Methanol was added at the ratio of 4 mL/g feces. Then the samples were homogenized with a Power Gen 125 homogenizer (Fisher Scientific) and stored at - 20 °C overnight. After sonicating for 30 min, the samples were centrifuged with a Heraeus Megafuge16R centrifuge at 3000 RPM. The supernatant was dried at room temperature and resuspended with corresponding amount of methanol (200 μL methanol/g feces) for injection on the TSQ Vantage instrument.
# (3) Urine sample preparation: Urine samples were thawed at room temperature and vortexed. 200 μL of the sample was transferred to a 1.5 mL Eppendorf microcentrifuge tube followed by adding 200 μL methanol and 10 μL of the 0.5 ng/μL trans-tamoxifen-13C2, 15N in methanol solution. After Vortaxing and centrifuging, the top supernatant was injected on the UPLC-TSQ Vantage mass spectrometer instrument for analysis.
# MCF-7 tumor xenograft = system: MCF-7 tumor xenograft; set-up: method as in PMID 29456804; conditions: mice; cited from earlier work
# [4] = In vitro sulfation of ZL277 in liver cytosol with PAPS; format: in vitro ADME; conditions: rat liver cytosol, 30 min
# Procedure: The incubation of ZL277 with liver cytosols followed a similar procedure to the study of sulfation of ZB716 [23]. After termination of incubation with 300 µL MeOH, the final mixture was centrifuged. The supernatant was analyzed on the UHPLC-Q-Exactive instrument.
# (§3) The samples from in vitro incubations were run on a Hypersil GOLD C18 column (1.8 µm, 2.1 × 50 mm) with UHPLC ultimate 3000 from Dionex coupled with one Q-Exactive HR mass spectrometer (Thermo Scientific, Waltham, MA, USA). The gradient started at 20% mobile phase B (Acetonitrile with 0.05% formic acid) and 80% mobile phase A (water with 0.05% formic acid), increased to 100% B in 4.5 min at 0.3 mL/min, stayed for 5 min, then came back to 30% B until equilibration. PRM mode or full scan mode was used to identify the interested metabolites.
# [5] = In vitro metabolism of ZL277 in liver S9 fraction with NADPH; format: in vitro ADME; conditions: rat liver S9, NADPH, 1 h
# Procedure: The incubation of ZL277 with liver S9 fractions followed the procedures of incubation with liver microsomes, as described previously. The pre-incubation solution consisted of 30 µL of potassium phosphate buffer (pH 7.4; 10X), 241.5 µL water, 15 µL of NADPH solution A, 3 µL of NADPH solution B, 7.5 µL rat liver S9 fractions. After incubation at 37 °C for 5 min in a 1.5 mL microcentrifuge vial, 3 µL of 10 mM ZL277 was added, mixed, and incubated at 37 °C for another 60 min in the incubator. Then, 300 µL MeOH was added to terminate the reaction. After centrifugation, the supernatant was analyzed on the UHPLC, coupled to a Q-Exactive high-resolution mass spectrometer.
# as §3
# MDA-MB-231 = system: MDA-MB-231; set-up: method as in PMID 29456804; conditions: cited from earlier work
# MCF-7 = system: MCF-7; set-up: method as in PMID 29456804; conditions: cited from earlier work
SMILES,metabolite detected in Plasma [1],metabolite detected in Tumor [2],metabolite detected in Urine [3],relative abundance among metabolites in feces [3],relative abundance among metabolites in urine [3],further results
"O=C(O)/C=C/c1cccc(S(=O)(=O)Nc2ccccc2)c1 [Belinostat acid, belinostat acid]",detected,found,detected,dominantly,dominant components,
"NC(=O)/C=C/c1cccc(S(=O)(=O)Nc2ccccc2)c1 [Belinostat amide, belinostat amide]",detected,found,detected,,,
"O=C(/C=C/c1cccc(S(=O)(=O)Nc2ccccc2)c1)NO [Belinostat, belinostat]",detected,found,detected,major metabolites,major components,effect on growth of MCF-7 tumor xenograft (MCF-7 tumor xenograft): only inhibited tumor growth
O=C(/C=C/c1cccc(S(=O)(=O)Nc2ccccc2)c1)NOS(=O)(=O)O [Belinostat–sulfate],,,,,,sulfate conjugate found after incubation of ZL277 [4]: No peak
"CONC(=O)/C=C/c1cccc(S(=O)(=O)Nc2ccccc2)c1 [Methylated belinostat, methylated belinostat]",detected,found,detected,,,
O=C(/C=C/c1cccc(S(=O)(=O)Nc2ccccc2)c1)NOCc1ccc(B(O)O)cc1 [ZL277-B(OH)2-452],,,,major metabolites,major components,relative abundance among drug-related forms in plasma ([1]; mice treated with ZL277): predominant form
O=C(/C=C/c1cccc(S(=O)(=O)Nc2ccccc2)c1)NOCc1ccc(OS(=O)(=O)O)cc1 [ZL277-OH-424-sufate],,,,,,sulfate conjugate found after incubation of ZL277 [4]: detected
O=C(/C=C/c1cccc(S(=O)(=O)Nc2ccccc2)c1)NOCc1ccc(O)cc1 [ZL277-OH-424],,,,major metabolites,major components,metabolite found after incubation of ZL277 with liver S9 fraction [5]: major oxidative metabolite
CC1(C)OB(c2ccc(CONC(=O)/C=C/c3cccc(S(=O)(=O)Nc4ccccc4)c3)cc2)OC1(C)C [ZL277],,,,,,"bioavailability compared to belinostat ([1]; mice, 10 mg/kg IP): superior; metabolite found after incubation of ZL277 with liver S9 fraction [5]: not found; antiproliferative activity compared with belinostat (MDA-MB-231): slightly weaker; antiproliferative activity compared with belinostat (MCF-7): slightly weaker; effect on growth of MCF-7 tumor xenograft (MCF-7 tumor xenograft): caused tumor regression"
